Source: PubChem BioAssay AID328 (DTP/NCI, 2004)
“And” between values parts separate entries of the source, which are not always exact repeats. Identical values can stand only once. Toxic doses and inconclusive results are not listed. How the source made its calls: active means survival T/C of 150% or more; inactive means T/C below 125% in these data. Non-standard residues stand in square brackets, D forms with d. Residues, ends and D or L forms follow the SMILES beside them. ξ: configuration not given here. *: point of attachment. Cbz = O=C(OCc1ccccc1)*; Boc = CC(C)(C)OC(=O)*; ξP = O=C(O)C1CCCN1

Test system: BDF1 mice, P388 leukemia ip, median survival T/C
Experiment: NCI In Vivo Anticancer Drug Screen. Data for tumor model P388 Leukemia (intraperitoneal) in B6D2F1 (BDF1) mice
Conditions: endpoint: median survival time, higher = longer survival
Protocol: The antitumor activity of compounds was measured in mice bearing transplantable tumors. Survival or tumor size were measured and the results are expressed as the measurement made in the treated group (T) divided by the measurement made in the vehicle treated control group (C). The tumor model used in this assay is P388 Leukemia (intraperitoneal) in B6D2F1 (BDF1) mice

[1] = dose: 50.0 mg/kg/injection, schedule: Q01DX009 (ip), vehicle: saline
[2] = dose: 100.0 mg/kg/injection, schedule: Q04DX003 (ip), vehicle: saline
[3] = dose: 200.0 mg/kg/injection, schedule: Q04DX003 (ip), vehicle: saline
[4] = dose: 400.0 mg/kg/injection, schedule: Q04DX003 (ip), vehicle: saline

Measured: T/C

CCOP1(=O)N(C)CCN1C
inactive: [1] 95 % of control

COC(=O)CNC(=O)C1CCCN1C(=O)OC(C)(C)C (stereo unspecified) (Boc-[ξP]-Gly-OMe)
inactive: [2] 100 % of control | [3] 105 % of control | [4] 95 % of control

CC(C)C1C(=O)N2CCCC2C2(O)OC(NC(=O)C3C=C4c5cccc6[nH]cc(c56)CC4N(C)C3)(C(C)C)C(=O)N12 (stereo unspecified)
inactive: dose: 12.5 mg/kg/injection, schedule: Q01DX009 (ip), vehicle: Klucel (hydroxypropylcellulose) (HPC) 109 % of control | dose: 25.0 mg/kg/injection, schedule: Q01DX009 (ip), vehicle: saline 115 % of control | dose: 25.0 mg/kg/injection, schedule: Q04DX003 (ip), vehicle: Klucel (hydroxypropylcellulose) (HPC) 91 % of control | dose: 50.0 mg/kg/injection, schedule: Q01DX009 (ip), vehicle: Klucel (hydroxypropylcellulose) (HPC) 109 % of control | [1] 110 % of control | dose: 50.0 mg/kg/injection, schedule: Q04DX003 (ip), vehicle: Klucel (hydroxypropylcellulose) (HPC) 91 % of control | dose: 100.0 mg/kg/injection, schedule: Q01DX009 (ip), vehicle: Klucel (hydroxypropylcellulose) (HPC) 118 % of control | dose: 100.0 mg/kg/injection, schedule: Q01DX009 (ip), vehicle: saline 109 % of control and 120 % of control | dose: 100.0 mg/kg/injection, schedule: Q04DX003 (ip), vehicle: Klucel (hydroxypropylcellulose) (HPC) 104 % of control | dose: 200.0 mg/kg/injection, schedule: Q04DX003 (ip), vehicle: Klucel (hydroxypropylcellulose) (HPC) 100 % of control | [3] 120 % of control | [4] 100 % of control

CC(=O)CC(C)=O.CC(=O)CC(C)=O.CC(=O)CC(C)=O.[In]
inactive: [2] 109 % of control | [3] 104 % of control

c1ccc2sc(SNC3CCCCC3)nc2c1
inactive: dose: 200.0 mg/kg/injection, schedule: Q04DX002 (ip), vehicle: saline 103 % of control | dose: 400.0 mg/kg/injection, schedule: Q04DX002 (ip), vehicle: saline 122 % of control

CC(C)NC(=O)c1ccccc1S(=O)(=O)c1ccccc1C(=O)NC(C)C
inactive: dose: 100.0 mg/kg/injection, schedule: Q01DX001 (ip), vehicle: saline with Tween-80 108 % of control | dose: 200.0 mg/kg/injection, schedule: Q01DX001 (ip), vehicle: saline with Tween-80 100 % of control | dose: 400.0 mg/kg/injection, schedule: Q01DX001 (ip), vehicle: saline with Tween-80 100 % of control

O=C(O)C(Cc1ccccc1)NC(=O)C1CCCN1C(=O)OCc1ccccc1 (stereo not drawn) (Cbz-Pro-Phe-OH; configuration not given here)
inactive: dose: 50.0 mg/kg/injection, schedule: Q01DX005 (ip), vehicle: saline with Tween-80 97 % of control | dose: 100.0 mg/kg/injection, schedule: Q01DX005 (ip), vehicle: saline with Tween-80 101 % of control | dose: 200.0 mg/kg/injection, schedule: Q01DX005 (ip), vehicle: saline with Tween-80 95 % of control

COc1cc(/C=C/C(=O)c2ccc3c(c2)OCO3)ccc1OCc1ccccc1
inactive: dose: 6.25 mg/kg/injection, schedule: Q01DX009 (ip), vehicle: water 100 % of control | dose: 12.5 mg/kg/injection, schedule: Q01DX009 (ip), vehicle: water 100 % of control | dose: 25.0 mg/kg/injection, schedule: Q01DX009 (ip), vehicle: water 106 % of control and 108 % of control | dose: 50.0 mg/kg/injection, schedule: Q01DX009 (ip), vehicle: water 95 % of control and 110 % of control | dose: 50.0 mg/kg/injection, schedule: Q04DX003 (ip), vehicle: water 86 % of control | dose: 100.0 mg/kg/injection, schedule: Q01DX009 (ip), vehicle: water 95 % of control | dose: 100.0 mg/kg/injection, schedule: Q04DX003 (ip), vehicle: water 100 % of control | dose: 200.0 mg/kg/injection, schedule: Q01DX009 (ip), vehicle: water 97 % of control and 110 % of control | dose: 200.0 mg/kg/injection, schedule: Q04DX003 (ip), vehicle: water 87 % of control | dose: 400.0 mg/kg/injection, schedule: Q04DX003 (ip), vehicle: water 89 % of control

[OH-].[OH-].[Pd+2].c1ccc(CSc2ncnc3nc[nH]c23)cc1.c1ccc(CSc2ncnc3nc[nH]c23)cc1.c1ccc(CSc2ncnc3nc[nH]c23)cc1.c1ccc(CSc2ncnc3nc[nH]c23)cc1
inactive: dose: 100.0 mg/kg/injection, schedule: Q01DX009 (ip), vehicle: saline with Tween-80 90 % of control | dose: 100.0 mg/kg/injection, schedule: Q04DX003 (ip), vehicle: saline with Tween-80 90 % of control | dose: 200.0 mg/kg/injection, schedule: Q01DX009 (ip), vehicle: saline with Tween-80 90 % of control | dose: 200.0 mg/kg/injection, schedule: Q04DX003 (ip), vehicle: saline with Tween-80 90 % of control | dose: 400.0 mg/kg/injection, schedule: Q01DX009 (ip), vehicle: saline with Tween-80 90 % of control
